# Assay results published in patent US7906522B2, “2-aminoquinazoline derivatives” (Kyowa Hakko Kirin Co., Ltd, priority 2005, dated 2011).
# Molecular target: T1, Activated human p38α (Homo sapiens, UniProt Q16539)
# T1 construct: purchased Upstate Biotechnology Inc. 14-251
# Experiment: p38MAP kinase inhibition test
# Format: biochemical
# Conditions: at a concentration of 1 μmol/L; substrate myelin basic protein, ATP 20 μmol/L, [γ-32P]ATP; read-out: enzyme inhibitory activity
# Method: p38MAP Kinase Inhibition Test
# Activated human p38α was purchased from Upstate Biotechnology Inc. (Catalog No. 14-251). P38MAP kinase inhibitory activity was measured by the procedure described below with reference to the method by Whitmarsh A. J. and Davis R. J. [Methods in Enzymology (Method. Enzymol.), vol. 332, p. 319-336 (2001)]. As the substrate to be phosphorylated, a myelin basic protein (Catalog No. 133-13493, Wako Pure Chemical Industries, Ltd.) (20 μg/assay) was used. The reaction was carried out in a solution containing 3-[N-Morpholino]propanesulfonic acid (MOPS) (20 mmol/L, pH 7.2), β-glycerophosphoric acid (Sigma Corp.) (25 mmol/L), ethylenebis(oxyethylenenitrilo)tetraacetic acid (EGTA) (1 mmol/L), […] (Sigma-Aldrich Corp.) (1 mmol/L), dithiothreitol (DTT, Wako Pure Chemical Industries, Ltd.) (1 mmol/L), adenosine 5′-triphosphate (ATP, Sigma Corp.) (20 μmol/L), and MgCl2 (18.75 mmol/L) (total 40 μL/assay). The reaction was started by adding human p38α and [γ-^32P]ATP (1 μCi/assay), and incubation was performed at 30° C. for 15 minutes. The reaction was terminated by adding 4.5% v/v phosphoric acid (10 μL/well). Then, 45 μL of the reaction mixture was adsorbed onto phosphocellulose paper (p81 paper, Code No. 3698023, Whatman International, Maidstone, UK). The phosphocellulose paper was washed with 0.75% v/v phosphoric acid. Then, the radioactivity of the phosphorylated myelin basic protein ([^32P]) remaining on the phosphocellulose paper was measured with a scintillation counter (TRI-CARB2700TR, PerkinElmer, Boston, Mass., USA) using program No. 27 (data mode: cpm, measurement time: 1 min, Background substract: none, energy range measured: LL 0.0-UL 2000) or a scintillation counter (LS6500, BeckmanCoulter, Fullerton, Calif., USA) using program No. 17 (data mode: cpm, measurement time: 1 min, Background substract: none, energy range measured: high). The test compound was dissolved in DMSO before addition.
# T1 sequence (Q16539 whole entry): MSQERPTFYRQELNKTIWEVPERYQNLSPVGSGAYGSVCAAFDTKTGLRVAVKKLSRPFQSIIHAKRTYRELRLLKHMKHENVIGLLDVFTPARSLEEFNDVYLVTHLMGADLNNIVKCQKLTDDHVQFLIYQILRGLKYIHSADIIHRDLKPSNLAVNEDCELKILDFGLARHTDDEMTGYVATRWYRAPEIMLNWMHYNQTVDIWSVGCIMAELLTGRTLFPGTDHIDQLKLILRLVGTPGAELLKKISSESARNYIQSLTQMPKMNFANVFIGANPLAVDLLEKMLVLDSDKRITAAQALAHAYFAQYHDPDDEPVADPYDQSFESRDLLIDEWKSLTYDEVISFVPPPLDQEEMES
row,SMILES,inhibition at 1 µM [%]
1,"CCOC(=O)COc1c(-c2ccccc2Cl)cc2cnc(NC(C)C)nc2c1C(C)=O [Compound 79, 8-Acetyl-6-(2-chlorophenyl)-7-(ethoxycarbonylmethyloxy)-2-(isopropylamino)quinazoline]",≥ 50
2,"CC(C)Nc1ncc2cc(-c3ccccc3Cl)c(O)c(-c3ccc(C(=O)O)cc3)c2n1 [Compound 92, 8-(4-Carboxyphenyl)-6-(2-chlorophenyl)-7-hydroxy-2-(isopropylamino)quinazoline]",≥ 50
3,"CC(C)Nc1ncc2cc(-c3cc(NC(=O)c4ccnc(N5CCOCC5)c4)ccc3O)ccc2n1 [Compound 266, 6-{2-Hydroxy-5-[(2-morpholinopyridin-4-yl)carbonylamino]phenyl]-2-(isopropylamino)quinazoline]",≥ 50
4,"COc1cc2nc(NCC(C)C)ncc2cc1-c1ccccc1Cl [Compound 151, 6-(2-Chlorophenyl)-2-isobutylamino-7-methoxyquinazoline]",≥ 50
5,"COc1cc2nc(NC(C)C)ncc2cc1C(=O)c1ccccc1 [Compound 109, 6-Benzoyl-2-isopropylamino-7-methoxyquinazoline]",≥ 50
6,"COc1cc2nc(NC(C)C)ncc2cc1C(=O)c1cccc(F)c1 [Compound 116, 6-(3-Fluorobenzoyl)-2-isopropylamino-7-methoxyquinazoline]",≥ 50
7,"CC[C@H](C)Nc1ncc2cc(-c3ccccc3Cl)c(OC)cc2n1 [Compound 155, (S)-2-(sec-Butylamino)-6-(2-chlorophenyl)-7-methoxyquinazoline]",≥ 50
8,"CC(=O)Nc1cccc(-c2cc3cnc(NC(C)C)nc3cc2O)c1 [Compound 287, 6-[3-(Acetylamino)phenyl]-7-hydroxy-2-(isopropylamino)quinazoline]",≥ 50
9,"CC(C)Nc1ncc2cc(-c3cccc(O)c3)c(O)cc2n1 [Compound 244, 7-Hydroxy-6-(3-hydroxyphenyl)-2-(isopropylamino)quinazoline]",≥ 50
10,"Cc1ccc(NC(=O)C2CC2)cc1-c1cc2cnc(NC(C)C)nc2cc1O [Compound 295, 6-(5-Cyclopropylcarbonylamino-2-methylphenyl)-7-hydroxy-2-(isopropylamino)quinazoline]",≥ 50
11,"CC(=O)Nc1cccc(-c2cc3cnc(NC(C)C)nc3cc2C)c1 [Compound 277, 6-[3-(Acetylamino)phenyl]-2-isopropylamino-7-methylquinazoline]",≥ 50
12,"COc1cc2nc(NC(C)C)ncc2cc1-c1cccc(NC(=O)c2ccc(OC(F)(F)F)cc2)c1 [Compound 214, 2-Isopropylamino-7-methoxy-6-{3-[(4-trifluoromethoxyphenyl)carbonylamino]phenyl}quinazoline]",≥ 50
13,"COc1cc2nc(NC(C)C)ncc2cc1-c1cccc(NC(=O)c2cccc(N(C)C)c2)c1 [Compound 54, 2-Isopropylamino-7-methoxy-6-{3-[(3-dimethylaminophenyl)carbonylamino]phenyl}quinazoline]",≥ 50
14,"COc1cc2nc(NC3CCCC3)ncc2cc1-c1ccccc1Cl [Compound 6, 6-(2-Chlorophenyl)-2-(cyclopentylamino)-7-methoxyquinazoline]",≥ 50
15,COc1cc2nc(NC(C)C)ncc2cc1-c1ccccc1C=NO [Compound 58],≥ 50
16,"Cc1ccc(NC(=O)c2ccccn2)cc1-c1ccc2nc(NC(C)C)ncc2c1 [Compound 262, 2-Isopropylamino-6-{2-methyl-5-(2-pyridylcarbonylamino)phenyl}quinazoline]",≥ 50
17,"COCOc1cc2nc(NC(C)C)ncc2cc1-c1ccccc1Cl [Compound 26, 6-(2-Chlorophenyl)-2-isopropylamino-7-methoxymethyloxyquinazoline]",≥ 50
18,"CC(C)Nc1ncc2cc(-c3ccccc3Cl)c(OCCC(=O)O)cc2n1 [Compound 30, 7-(2-Carboxyethyloxy)-6-(2-chlorophenyl)-2-isopropylaminoquinazoline]",≥ 50
19,"COc1c(-c2ccc(F)cc2F)cc2cnc(NC(C)C)nc2c1Br [Compound 82, 8-Bromo-6-(2,4-difluorophenyl)-2-isopropylamino-7-methoxyquinazoline]",≥ 50

row,SMILES,inhibition at 1 µM [%]
1,"COc1cc2nc(NC3CCNCC3)ncc2cc1-c1ccccc1Cl [Compound 152, 6-(2-Chlorophenyl)-7-methoxy-2-(piperidin-4-ylamino)quinazoline]",≥ 50
2,"COc1cc2nc(NC(C)C)ncc2cc1-c1ccccc1C#N [Compound 183, 6-(2-Cyanophenyl)-2-isopropylamino-7-methoxyquinazoline]",≥ 50
3,"CC(C)Nc1ncc2cc(-c3cccc(NC(=O)C4(C)CC4)c3)c(O)cc2n1 [Compound 299, 7-Hydroxy-2-isopropylamino-6-{3-[(1-methylcyclopropyl)carbonylamino]phenyl}quinazoline]",≥ 50
4,"CC(C)Nc1ncc2cc(-c3ccccc3Cl)c(OCC(=O)N3CCN(C)CC3)cc2n1 [Compound 40, 6-(2-Chlorophenyl)-2-isopropylamino-7-[(4-methylpiperazin-1-ylcarbonyl)methyloxy]quinazoline]",≥ 50
5,"COc1cc2nc(NC3CCN(S(C)(=O)=O)CC3)ncc2cc1-c1ccccc1C=O [Compound 237, 6-(2-Formylphenyl)-7-methoxy-2-[1-(methylsulfonyl)piperidin-4-ylamino]quinazoline]",≥ 50
6,"COc1cc2nc(NC(C)C)ncc2cc1-c1cccc(NC(=O)c2cc3ccccc3[nH]2)c1 [Compound 211, 6-{3-[(1H-indol-2-yl)carbonylamino]phenyl}-2-isopropylamino-7-methoxyquinazoline]",≥ 50
7,"CC(C)Nc1ncc2cc(-c3cccc4ccccc34)c(O)cc2n1 [Compound 326, 7-Hydroxy-2-isopropylamino-6-(naphthalen-1-yl)quinazoline]",≥ 50
8,"CC(C)Nc1ncc2cc(-c3ccccc3Cl)c(-c3cccc(C(=O)O)c3)cc2n1 [Compound 42, 7-(3-Carboxyphenyl)-6-(2-chlorophenyl)-2-isopropylaminoquinazoline]",≥ 50
9,"CC(C)Nc1ncc2cc(-c3ccccc3Cl)c(OC(=O)c3ccccc3)cc2n1 [Compound 20, 7-Benzoyloxy-6-(2-chlorophenyl)-2-isopropylaminoquinazoline]",≥ 50
10,"CC(C)Nc1ncc2cc(C(=O)c3ccc(F)c(Cl)c3)c(O)cc2n1 [Compound 127, 6-(3-Chloro-4-fluorobenzoyl)-7-hydroxy-2-(isopropylamino)quinazoline]",≥ 50
11,"COCOc1c(-c2ccccc2Cl)cc2cnc(NC(C)C)nc2c1-c1cccc(C(=O)O)c1 [Compound 93, 8-(3-Carboxyphenyl)-6-(2-chlorophenyl)-2-isopropylamino-7-(methoxymethyloxy)quinazoline]",≥ 50
12,"Cc1ccccc1-c1cc2cnc(Nc3c(Cl)cc([N+](=O)[O-])cc3Cl)nc2cc1O [Compound 179, 2-(2,6-Dichloro-4-nitroanilino)-7-hydroxy-6-(2-methylphenyl)quinazoline]",≥ 50
13,"COc1cc2nc(NC(C)C)ncc2cc1-c1cc(NC(=O)c2ccc[nH]2)ccc1O [Compound 252, 6-{2-Hydroxy-5-[(1H-pyrrol-2-yl)carbonylamino]phenyl}-2-isopropylamino-7-methoxyquinazoline]",≥ 50
14,"CC(C)Nc1ncc2cc(-c3ccccc3Cl)c(O)c(-c3ccccc3Cl)c2n1 [Compound 98, 6,8-Di(2-chlorophenyl)-7-hydroxy-2-(isopropylamino)quinazoline]",≥ 50
15,"Cc1ccc(C(=O)NC2CC2)cc1-c1ccc2nc(NC(C)C)ncc2c1 [Compound 268, 6-(5-Cyclopropylcarbamoyl-2-methylphenyl)-2-(isopropylamino)quinazoline]",≥ 50
16,"CC(C)Nc1ncc2cc(C(=O)c3ccc(F)c(F)c3)c(O)cc2n1 [Compound 129, 6-(3,4-Difluorobenzoyl)-7-hydroxy-2-(isopropylamino)quinazoline]",≥ 50
17,"CC[C@H](C)Nc1ncc2cc(-c3cc(NC(=O)c4ccc[nH]4)ccc3CO)ccc2n1 [Compound 273, (S)-2-(sec-Butylamino)-6-{2-hydroxymethyl-5-[(1H-pyrrol-2-yl)carbonylamino]phenyl}quinazoline]",≥ 50
18,"COc1c(-c2ccccc2Cl)cc2cnc(NC(C)C)nc2c1-c1ccccn1 [Compound 86, 6-(2-Chlorophenyl)-2-isopropylamino-7-methoxy-8-(2-pyridyl)quinazoline]",≥ 50
19,"CC(C)Nc1ncc2cc(-c3ccccc3Cl)c(O)c(-c3ccccn3)c2n1 [Compound 87, 6-(2-Chlorophenyl)-2-isopropylamino-7-hydroxy-8-(2-pyridyl)quinazoline]",≥ 50
